Earlier results, collected in US20090036693A1, “METHOD OF PURIFYING UBIQUINONE-10” (Kyowa Hakko Kogyo Co., Ltd., priority 2005, published 2009).

Details: solvent methanol; background statement

solubility in methanol: ≤ 5000 µg/mL
Structure (SMILES): COC1=C(OC)C(=O)C(C/C=C(\C)CC/C=C(\C)CC/C=C(\C)CC/C=C(\C)CC/C=C(\C)CC/C=C(\C)CC/C=C(\C)CC/C=C(\C)CC/C=C(\C)CCC=C(C)C)=C(C)C1=O [ubiquinone-10]
